Test results: paper PMC4510645, “Discovery of intramolecular trans-sialidases in human gut microbiota suggests novel mechanisms of mucosal adaptation” (Nature Communications, 2015)

Assays:
[1] = biological target: T1, RgNanH (Mediterraneibacter gnavus (Ruminococcus gnavus), UniProt A7B557); experiment: Inhibition of RgNanH activity against 4MU-Neu5Ac by neuraminidase inhibitors; format: biochemical, Ruminococcus gnavus ATCC 29149; conditions: 4MU-Neu5Ac 0.51 mM, 1 nM enzyme; Neu5Ac 0-0.3 mM, Lac 0-1.5 mM; pH 6.5, 37 °C
T1 sequence (A7B557 26-723): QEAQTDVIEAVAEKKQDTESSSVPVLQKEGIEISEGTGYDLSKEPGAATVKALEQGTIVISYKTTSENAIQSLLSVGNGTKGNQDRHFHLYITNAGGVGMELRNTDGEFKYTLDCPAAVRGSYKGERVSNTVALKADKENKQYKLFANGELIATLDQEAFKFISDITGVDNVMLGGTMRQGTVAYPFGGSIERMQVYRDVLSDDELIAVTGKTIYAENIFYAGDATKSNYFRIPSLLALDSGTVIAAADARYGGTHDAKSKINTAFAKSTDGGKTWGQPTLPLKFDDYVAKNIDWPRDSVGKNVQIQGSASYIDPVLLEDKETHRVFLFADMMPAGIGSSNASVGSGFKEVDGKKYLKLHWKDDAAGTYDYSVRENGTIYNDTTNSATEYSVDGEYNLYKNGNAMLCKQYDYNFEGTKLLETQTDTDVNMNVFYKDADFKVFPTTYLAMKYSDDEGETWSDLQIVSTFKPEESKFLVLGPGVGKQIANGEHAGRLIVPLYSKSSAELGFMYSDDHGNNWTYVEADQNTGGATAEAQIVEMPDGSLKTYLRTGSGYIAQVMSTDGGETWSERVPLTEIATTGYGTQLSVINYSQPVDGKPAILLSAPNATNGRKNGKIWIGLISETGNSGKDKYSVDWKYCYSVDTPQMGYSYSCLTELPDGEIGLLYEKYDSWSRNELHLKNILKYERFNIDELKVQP
Experimental: Figure 1 Kinetic analysis of the hydrolysis of sialylated substrates by RgNanH in presence or absence of inhibitors. Substrate (a) 4MU-Neu5Ac or (b) PNP-Neu5Ac was incubated with RgNanH ([…] and 0.43 nM, respectively) at 37 °C, pH 6.5 and the release of product measured using a plate reader. (c) Inhibition of RgNanH (1.00 nM) incubated with 4MU-Neu5Ac (0.51 mM) by zanamivir (●), Neu5Ac2en (▪), siastatin B (▴) and OC (♦), the rates are normalized to a % of the uninhibited rate. [I] is the inhibitor concentration. (d) 3′SL was incubated with RgNanH (2.25 nM) and the release of product measured by HPAEC-PAD. Experiments were done at least in duplicate (usually triplicate) and the error bars show the s.e.m.
The purified enzymes were incubated with the substrate in buffer made from 20 mM Na2HPO4 and 20 mM NaH2PO4 adjusted to pH 6.5 containing 1 mg ml^−1 BSA at 37 °C unless otherwise stated. For 4MU-Neu5Ac, the progression of the reaction was monitored by the release of the MU using a 96-well plate reader (BMG Labtech, Ortenberg, Germany) using fluorescence with an excitation at 340 nm and an emission at 420 nm. For determining the optimal temperature, the assay was carried out in 20 mM PBS at pH 7.4. For determining the optimal pH, the assay was carried out at 37 °C using buffer made from 20 mM Na2HPO4 and 20 mM NaH2PO4 in varying proportions to obtain the desired pH. PNP release from PNP-Neu5Ac was monitored in a similar way measuring absorbance at 405 nm every 60 s. For 3′SL, the reaction was monitored by HPAEC-PAD. An aliquot of the reaction was removed from the main reaction volume at the reaction stopped by boiling for 20 min, the enzyme was then removed by centrifugation at 17,000g for 10 min and filtration with a 0.2-μm filter (Millipore, Billerica, USA). The sugars were separated by HPAEC with an isocratic gradient of 100 mM NaOH and 100 mM NaAC at 1 ml min^−1 on a CarboPac PA1 protected with a guard column and detected using PAD on a Dionex ICS5000 system (Thermo Scientific, Hemel Hempstead, UK). The column was cleaned with 10 ml of 500 mM NaOH and 500 mM NaAc, and the column was re-equilibrated with 100 mM NaOH and 100 mM NaAc. An internal standard of fucose was used to quantify the results. […]

[2] = system: R. gnavus ATCC 29149; design: method as in PMID 24204617; conditions: cited from earlier work; for ability of the bacteria to grow on the substrate: R. gnavus ATCC 29149
[3] = Spontaneous interconversion of 2,7-anhydro-Neu5Ac and Neu5Ac by 1H NMR; format: physicochemical; conditions: up to 24 h at 37 °C
Experimental: The products of the reaction were thus further monitored by ^1H nuclear magnetic resonance (NMR). […] (Fig. 3). These peaks are characteristic of 2,7-anhydro-α-N-acetylneuraminic acid (2,7-anhydro-Neu5Ac) and arise from the protons in positions 6 and 7 (Fig. 3a). Peaks corresponding to 2,7-anhydro-Neu5Ac were observed when RgNanH was incubated in presence of 4MU-Neu5Ac (Fig. 3a) or 3′SL (Fig. 3b). […] The signals of 2,7-anhydro-Neu5Ac and their chemical shifts are shown in Supplementary Table 1. This product was absent in control experiments using A. muciniphila sialidases (AkmNan0625 and AkmNan1835) or in absence of enzyme, confirming the specificity of the enzymatic reaction (Supplementary Fig. 5).
Extracts (400 μl) were mixed with 200 μl of D2O and 20 μl of a solution of D2O containing 1 mM of TSP (sodium 3-(trimethylsilyl)-propionate-d4). Samples (500 μl) were transferred into a 5-mm NMR tube for spectral acquisition. The ^1H NMR spectra were recorded at 600 MHz on a Bruker Avance spectrometer (Bruker BioSpin GmbH, Rheinstetten, Germany) running Topspin 2.0 software, and were fitted with a cryoprobe and a 60-slot autosampler. Each ^1H NMR spectrum was acquired with 128 scans, a spectral width of 8,012.8 Hz, an acquisition time of 2.04 s and a relaxation delay of 2.0 s. […]

[4] = biological target: T1, RgNanH; experiment: Hydrolysis of sialic acid from glycoproteins monitored by 1H NMR; format: biochemical, Ruminococcus gnavus ATCC 29149; conditions: glycoprotein 1 mg ml^−1, 1 nM enzyme, 37 °C, pH 6.5, overnight
Experimental: The ability of RgNanH to hydrolyse sialic acid from glycoproteins was investigated by incubation of the enzyme with human α-1-acid glycoprotein (AGP) and fetuin (Fet) both of which are known to contain α2-3 sialyl linkages, while asialo-Fet was also included as a control.
For specificity tests against sialylated oligosaccharides (1 mM) and glycoproteins (1 mg ml^−1), 1 nM of enzyme was incubated with the substrate at 37 °C, pH 6.5, overnight.
Extracts (400 μl) were mixed with 200 μl of D2O and 20 μl of a solution of D2O containing 1 mM of TSP (sodium 3-(trimethylsilyl)-propionate-d4). Samples (500 μl) were transferred into a 5-mm NMR tube for spectral acquisition. The ^1H NMR spectra were recorded at 600 MHz on a Bruker Avance spectrometer (Bruker BioSpin GmbH, Rheinstetten, Germany) running Topspin 2.0 software, and were fitted with a cryoprobe and a 60-slot autosampler. Each ^1H NMR spectrum was acquired with 128 scans, a spectral width of 8,012.8 Hz, an acquisition time of 2.04 s and a relaxation delay of 2.0 s. The ‘noesypr1d' presaturation sequence was used to suppress the residual water signal with a low-power selective irradiation at the water frequency during the recycle delay and a mixing time of 100 ms. Spectra were transformed with a 0.3-Hz line broadening, manually phased, baseline corrected and referenced by setting the TSP methyl signal to 0 p.p.m.

Compound	Inhibition of RgNanH [1]	ability of the bacteria to grow on the substrate [2]	spontaneous conversion between 2,7-anhydro-Neu5Ac and Neu5Ac [3]	growth on sole carbon source ([2]; R. gnavus ATCC 29149 and E1)	activity of RgNanH against glycoprotein (2,7-anhydro-Neu5Ac peaks by 1H NMR) [4]	activity of RgNanH against glycoprotein (2,7-anhydro-Neu5Ac peaks by 1H NMR) ([4]; listed as α-1-AGP)
OC[C@H]1O[C@@H](O[C@H]2[C@H](O)[C@@H](O)C(O)O[C@@H]2CO)[C@H](O)[C@@H](O)[C@H]1O (mixture of isomers) [lactose]	not inhibited	not				
CC(=O)N[C@H]1[C@H]2O[C@@](C(=O)O)(C[C@@H]1O)O[C@@H]2[C@H](O)CO [2,7-anhydro-Neu5Ac, 2,7-anhydro-α-N-acetylneuraminic acid]			no spontaneous conversion			
CC(=O)N[C@H]1[C@H]([C@H](O)[C@H](O)CO)OC(O)(C(=O)O)C[C@@H]1O (stereo partly drawn) [Neu5Ac, sialic acid]	not inhibited	not	no evidence of spontaneous conversion	could not grow		
AGP: human α-1-acid glycoprotein, known to contain α2-3 sialyl linkages					showed activity	substrates
